Experimental data from patent US20260022142A1, “MACROCYCLIC IMMUNOMODULATORS” (Bristol-Myers Squibb Company, priority 2022, published 2026).
Bridge positions count the residues as written; N and C are the ends. Square brackets hold non-standard residues; d marks the D form. Peptide text beside a SMILES is read from it. * marks the point of attachment. Phe(4-COOH) = N[C@@H](Cc1ccc(C(=O)O)cc1)C(=O)O; Bip = N[C@@H](Cc1ccc(-c2ccccc2)cc1)C(=O)O; Phe(3-Me) = Cc1cccc(C[C@H](N)C(=O)O)c1; Cha = N[C@@H](CC1CCCCC1)C(=O)O; Carboxymethyl = O=C(O)C*; Orn = NCCC[C@H](N)C(=O)O; Aun = NCCCCCCCCCCC(=O)O; Dab = NCC[C@H](N)C(=O)O; Dap = NC[C@H](N)C(=O)O; AEEA = NCCOCCOCC(=O)O

Biological target: T1, PD-1/PD-L1 interaction (PE-labeled human PD-L1-Ig binding to Jurkat cell line over-expressing human PD-1) (Homo sapiens, UniProt Q15116)
T1 construct: expressed in transfected cells; host or cells: Jurkat
Test: Jurkat-PD-1 Cell Binding High-Content Screening Assay (CBA)
Type: cell-based
Conditions: Jurkat cell line over-expressing human PD-1; PE-labeled PD-L1-Ig 20 nM final; read-out: Jurkat hPD1-PDL1 IC50
Summary of the method: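 Binding of fluorescent PD-L1-Ig (20 nM final) to Jurkat-PD-1 cells was measured by automated imaging after 1 h, following a 2 h compound pre-treatment at 37° C.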

T1 sequence (Q15116 25-288): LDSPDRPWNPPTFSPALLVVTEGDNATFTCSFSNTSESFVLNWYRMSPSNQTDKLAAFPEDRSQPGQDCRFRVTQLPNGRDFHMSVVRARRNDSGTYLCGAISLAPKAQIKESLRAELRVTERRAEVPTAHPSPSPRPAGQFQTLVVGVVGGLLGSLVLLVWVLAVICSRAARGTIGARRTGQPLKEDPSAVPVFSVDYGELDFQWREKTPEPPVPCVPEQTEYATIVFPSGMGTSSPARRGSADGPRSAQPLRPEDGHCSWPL

Row | Structure (SMILES) | IC50
1 | Cc1cccc(C[C@@H]2NC(=O)[C@H](CC(=O)O)NC(=O)[C@H](Cc3ccc(OCC(=O)O)cc3)NC(=O)[C@H](CN)NC(=O)CSC[C@@H](C(=O)N[C@@H](CCCCN)C(=O)NCCOCCOCC(=O)NCCCCCCCCCCC(=O)O)NC(=O)[C@H](CCCNC(=N)N)NC(=O)[C@H](C(C)C)NC(=O)[C@H](CC3CCCCC3)NC(=O)[C@H](CCN)NC(=O)[C@@H](CC(C)C)NC(=O)[C@H](CCCN)NC(=O)[C@H](C(C)C)NC(=O)[C@H](Cc3ccc(-c4ccccc4)cc3)NC(=O)[C@H](C(C)C)NC2=O)c1 [Compound 2528] ({CH2CO}-[Dap]Y(Carboxymethyl)D[Phe(3-Me)]V[Bip]V[Orn][dL][Dab][Cha]VRCK[AEEA][Aun]-OH; thioether N-14) | 7.8 nM
2 | CC(C)C[C@H]1NC(=O)[C@H](CCCN)NC(=O)[C@H](C(C)C)NC(=O)[C@H](Cc2ccc(-c3ccccc3)cc2)NC(=O)[C@H](C(C)C)NC(=O)[C@H](Cc2c[nH]c3ccccc23)NC(=O)[C@H](CC(=O)O)NC(=O)[C@H](Cc2ccc(OCC(=O)O)cc2)NC(=O)[C@H](CN)NC(=O)CSC[C@@H](C(=O)N[C@@H](CCCCN)C(=O)NCCCCCCCCCCC(=O)O)NC(=O)[C@H](CCCCN)NC(=O)[C@H](C(C)C)NC(=O)[C@H](CC2CCCCC2)NC(=O)[C@H](CCN)NC1=O [Compound 2533] ({CH2CO}-[Dap]Y(Carboxymethyl)DWV[Bip]V[Orn][dL][Dab][Cha]VKCK[Aun]-OH; thioether N-14) | 23.8 nM
3 | Cc1cccc(C[C@@H]2NC(=O)[C@H](CC(=O)O)NC(=O)[C@H](Cc3ccc(OCC(=O)O)cc3)NC(=O)[C@H](CN)NC(=O)CSC[C@@H](C(=O)N[C@@H](CCCCN)C(=O)NCCCCCCCCCCC(=O)O)NC(=O)[C@H](CN)NC(=O)[C@H](C(C)C)NC(=O)[C@H](CC3CCCCC3)NC(=O)[C@H](CCN)NC(=O)[C@@H](CC(C)C)NC(=O)[C@H](CCCN)NC(=O)[C@H](C(C)C)NC(=O)[C@H](Cc3ccc(-c4ccccc4)cc3)NC(=O)[C@H](C(C)C)NC2=O)c1 [Compound 2534] ({CH2CO}-[Dap]Y(Carboxymethyl)D[Phe(3-Me)]V[Bip]V[Orn][dL][Dab][Cha]V[Dap]CK[Aun]-OH; thioether N-14) | 6.3 nM
4 | Cc1cccc(C[C@@H]2NC(=O)[C@H](CC(=O)O)NC(=O)[C@H](Cc3ccc(OCC(=O)O)cc3)NC(=O)[C@H](CN)NC(=O)CSC[C@@H](C(=O)N[C@@H](CCCCN)C(=O)NCCCCCCCCCCC(=O)O)NC(=O)[C@H](CCCN)NC(=O)[C@H](C(C)C)NC(=O)[C@H](CC3CCCCC3)NC(=O)[C@H](CCN)NC(=O)[C@@H](CC(C)C)NC(=O)[C@H](CCCN)NC(=O)[C@H](C(C)C)NC(=O)[C@H](Cc3ccc(-c4ccccc4)cc3)NC(=O)[C@H](C(C)C)NC2=O)c1 [Compound 2535] ({CH2CO}-[Dap]Y(Carboxymethyl)D[Phe(3-Me)]V[Bip]V[Orn][dL][Dab][Cha]V[Orn]CK[Aun]-OH; thioether N-14) | 6.4 nM
5 | Cc1cccc(C[C@@H]2NC(=O)[C@H](CC(=O)O)NC(=O)[C@H](Cc3ccc(OCC(=O)O)cc3)NC(=O)[C@H](CN)NC(=O)CSC[C@@H](C(=O)N[C@@H](CCCCN)C(=O)NCCCCCCCCCCC(=O)O)NC(=O)[C@H](CCCNC(=N)N)NC(=O)[C@H](C(C)C)NC(=O)[C@H](CC3CCCCC3)NC(=O)[C@H](CCN)NC(=O)[C@@H](CC(C)C)NC(=O)[C@H](CCCN)NC(=O)[C@H](C(C)C)NC(=O)[C@H](Cc3ccc(-c4ccccc4)cc3)NC(=O)[C@H](C(C)C)NC2=O)c1 [Compound 2536] ({CH2CO}-[Dap]Y(Carboxymethyl)D[Phe(3-Me)]V[Bip]V[Orn][dL][Dab][Cha]VRCK[Aun]-OH; thioether N-14) | 9.5 nM
6 | CC(C)C[C@H]1NC(=O)[C@H](CCCN)NC(=O)[C@H](C(C)C)NC(=O)[C@H](Cc2ccc(-c3ccccc3)cc2)NC(=O)[C@H](C(C)C)NC(=O)[C@H](Cc2c[nH]c3ccccc23)NC(=O)[C@H](CC(=O)O)NC(=O)[C@H](Cc2ccc(OCC(=O)O)cc2)NC(=O)[C@H](Cc2ccc(OCC(=O)O)cc2)NC(=O)CSC[C@@H](C(=O)N[C@@H](CCCCN)C(=O)NCCCCCCCCCCC(=O)O)NC(=O)[C@H](CN)NC(=O)[C@H](C(C)C)NC(=O)[C@H](CC2CCCCC2)NC(=O)[C@H](CCN)NC1=O [Compound 2538] ({CH2CO}-Y(Carboxymethyl)Y(Carboxymethyl)DWV[Bip]V[Orn][dL][Dab][Cha]V[Dap]CK[Aun]-OH; thioether N-14) | 13.6 nM

Now from value to compound:

Row | IC50 | Structure (SMILES)
7 | 12.7 nM | CC(C)C[C@H]1NC(=O)[C@H](CCCN)NC(=O)[C@H](C(C)C)NC(=O)[C@H](Cc2ccc(-c3ccccc3)cc2)NC(=O)[C@H](C(C)C)NC(=O)[C@H](Cc2c[nH]c3ccccc23)NC(=O)[C@H](CC(=O)O)NC(=O)[C@H](Cc2ccc(OCC(=O)O)cc2)NC(=O)[C@H](Cc2ccc(OCC(=O)O)cc2)NC(=O)CSC[C@@H](C(=O)N[C@@H](CCCCN)C(=O)NCCOCCOCC(=O)NCCCCCCCCCCC(=O)O)NC(=O)[C@H](CCCN)NC(=O)[C@H](C(C)C)NC(=O)[C@H](CC2CCCCC2)NC(=O)[C@H](CCN)NC1=O [Compound 2529] ({CH2CO}-Y(Carboxymethyl)Y(Carboxymethyl)DWV[Bip]V[Orn][dL][Dab][Cha]V[Orn]CK[AEEA][Aun]-OH; thioether N-14)
8 | 10.9 nM | CC(C)C[C@H]1NC(=O)[C@H](CCCN)NC(=O)[C@H](C(C)C)NC(=O)[C@H](Cc2ccc(-c3ccccc3)cc2)NC(=O)[C@H](C(C)C)NC(=O)[C@H](Cc2c[nH]c3ccccc23)NC(=O)[C@H](CC(=O)O)NC(=O)[C@H](Cc2ccc(OCC(=O)O)cc2)NC(=O)[C@H](Cc2ccc(OCC(=O)O)cc2)NC(=O)CSC[C@@H](C(=O)N[C@@H](CCCCN)C(=O)NCCOCCOCC(=O)NCCCCCCCCCCC(=O)O)NC(=O)[C@H](CN)NC(=O)[C@H](C(C)C)NC(=O)[C@H](CC2CCCCC2)NC(=O)[C@H](CCN)NC1=O [Compound 2530] ({CH2CO}-Y(Carboxymethyl)Y(Carboxymethyl)DWV[Bip]V[Orn][dL][Dab][Cha]V[Dap]CK[AEEA][Aun]-OH; thioether N-14)
9 | 22.2 nM | CC(C)C[C@H]1NC(=O)[C@H](CCCN)NC(=O)[C@H](C(C)C)NC(=O)[C@H](Cc2ccc(-c3ccccc3)cc2)NC(=O)[C@H](C(C)C)NC(=O)[C@H](Cc2c[nH]c3ccccc23)NC(=O)[C@H](CC(=O)O)NC(=O)[C@H](Cc2ccc(C(=O)O)cc2)NC(=O)[C@H](Cc2ccc(OCC(=O)O)cc2)NC(=O)CSC[C@@H](C(=O)N[C@@H](CCCCN)C(=O)NCCCCCCCCCCC(=O)O)NC(=O)[C@H](CCCCN)NC(=O)[C@H](C(C)C)NC(=O)[C@H](CC2CCCCC2)NC(=O)[C@H](CCN)NC1=O [Compound 2531] ({CH2CO}-Y(Carboxymethyl)[Phe(4-COOH)]DWV[Bip]V[Orn][dL][Dab][Cha]VKCK[Aun]-OH; thioether N-14)
10 | 34.6 nM | CC(C)C[C@H]1NC(=O)[C@H](CCCN)NC(=O)[C@H](C(C)C)NC(=O)[C@H](Cc2ccc(-c3ccccc3)cc2)NC(=O)[C@H](C(C)C)NC(=O)[C@H](Cc2c[nH]c3ccccc23)NC(=O)[C@H](CC(=O)O)NC(=O)[C@H](Cc2ccc(OCC(=O)O)cc2)NC(=O)[C@H](Cc2ccc(OCC(=O)O)cc2)NC(=O)CSC[C@@H](C(=O)N[C@@H](CCCCN)C(=O)NCCCCCCCCCCC(=O)O)NC(=O)[C@H](CCCNC(=N)N)NC(=O)[C@H](C(C)C)NC(=O)[C@H](CC2CCCCC2)NC(=O)[C@H](CCN)NC1=O [Compound 2532] ({CH2CO}-Y(Carboxymethyl)Y(Carboxymethyl)DWV[Bip]V[Orn][dL][Dab][Cha]VRCK[Aun]-OH; thioether N-14)
11 | 18.9 nM | CC(C)C[C@H]1NC(=O)[C@H](CCCN)NC(=O)[C@H](C(C)C)NC(=O)[C@H](Cc2ccc(-c3ccccc3)cc2)NC(=O)[C@H](C(C)C)NC(=O)[C@H](Cc2c[nH]c3ccccc23)NC(=O)[C@H](CC(=O)O)NC(=O)[C@H](Cc2ccc(OCC(=O)O)cc2)NC(=O)[C@H](Cc2ccc(OCC(=O)O)cc2)NC(=O)CSC[C@@H](C(=O)N[C@@H](CCCCN)C(=O)NCCCCCCCCCCC(=O)O)NC(=O)[C@H](CCCN)NC(=O)[C@H](C(C)C)NC(=O)[C@H](CC2CCCCC2)NC(=O)[C@H](CCN)NC1=O [Compound 2537] ({CH2CO}-Y(Carboxymethyl)Y(Carboxymethyl)DWV[Bip]V[Orn][dL][Dab][Cha]V[Orn]CK[Aun]-OH; thioether N-14)
12 | 5.3 nM | CC(C)C[C@H]1NC(=O)[C@H](CCCN)NC(=O)[C@H](C(C)C)NC(=O)[C@H](Cc2ccc(-c3ccccc3)cc2)NC(=O)[C@H](C(C)C)NC(=O)[C@H](Cc2c[nH]c3ccccc23)NC(=O)[C@H](CC(=O)O)NC(=O)[C@H](Cc2ccc(C(=O)O)cc2)NC(=O)[C@H](Cc2ccc(OCC(=O)O)cc2)NC(=O)CSC[C@@H](C(=O)NCCOCCOCC(=O)N[C@@H](CCN)C(=O)NCCCCCCCCCCC(=O)O)NC(=O)[C@H](CCCCN)NC(=O)[C@H](C(C)C)NC(=O)[C@H](CC2CCCCC2)NC(=O)[C@H](CCN)NC1=O [Compound 2539] ({CH2CO}-Y(Carboxymethyl)[Phe(4-COOH)]DWV[Bip]V[Orn][dL][Dab][Cha]VKC[AEEA][Dab][Aun]-OH; thioether N-14)
13 | 7 nM | CC(C)C[C@H]1NC(=O)[C@H](CCCN)NC(=O)[C@H](C(C)C)NC(=O)[C@H](Cc2ccc(-c3ccccc3)cc2)NC(=O)[C@H](C(C)C)NC(=O)[C@H](Cc2c[nH]c3ccccc23)NC(=O)[C@H](CC(=O)O)NC(=O)[C@H](Cc2ccc(OCC(=O)O)cc2)NC(=O)[C@H](Cc2ccc(OCC(=O)O)cc2)NC(=O)CSC[C@@H](C(=O)NCCOCCOCC(=O)N[C@@H](CCN)C(=O)NCCCCCCCCCCC(=O)O)NC(=O)[C@H](CCCNC(=N)N)NC(=O)[C@H](C(C)C)NC(=O)[C@H](CC2CCCCC2)NC(=O)[C@H](CCN)NC1=O [Compound 2540] ({CH2CO}-Y(Carboxymethyl)Y(Carboxymethyl)DWV[Bip]V[Orn][dL][Dab][Cha]VRC[AEEA][Dab][Aun]-OH; thioether N-14)
